In PMC4363092 (Journal of medicinal chemistry, 2014):
Where “and” joins values, the source holds several entries; their conditions need not be identical. Identical values can stand only once. Entries after “also recorded” stand apart in the source; their conditions may differ. Like-named read-outs stand apart in the source and are kept apart here.

Assays:
P2Y11 receptor [1] = settings: cited from earlier work; for potency relative to ATP at the P2Y11 receptor: higher potency than ATP
human NTPDase1,2,3,8 = experiment: Inhibition of NTPDase activity, text statements pooled over NTPDase1,2,3,8; type: biochemical; settings: analogue 100 μM, pooled over four NTPDases
human NPP1 = target: T1, human NPP1 (Homo sapiens, UniProt P22413); experiment: Inhibition of NPP1, pNP-TMP as substrate; type: biochemical; settings: Dixon and Cornish–Bowden methods
T1 sequence (P22413 1-925): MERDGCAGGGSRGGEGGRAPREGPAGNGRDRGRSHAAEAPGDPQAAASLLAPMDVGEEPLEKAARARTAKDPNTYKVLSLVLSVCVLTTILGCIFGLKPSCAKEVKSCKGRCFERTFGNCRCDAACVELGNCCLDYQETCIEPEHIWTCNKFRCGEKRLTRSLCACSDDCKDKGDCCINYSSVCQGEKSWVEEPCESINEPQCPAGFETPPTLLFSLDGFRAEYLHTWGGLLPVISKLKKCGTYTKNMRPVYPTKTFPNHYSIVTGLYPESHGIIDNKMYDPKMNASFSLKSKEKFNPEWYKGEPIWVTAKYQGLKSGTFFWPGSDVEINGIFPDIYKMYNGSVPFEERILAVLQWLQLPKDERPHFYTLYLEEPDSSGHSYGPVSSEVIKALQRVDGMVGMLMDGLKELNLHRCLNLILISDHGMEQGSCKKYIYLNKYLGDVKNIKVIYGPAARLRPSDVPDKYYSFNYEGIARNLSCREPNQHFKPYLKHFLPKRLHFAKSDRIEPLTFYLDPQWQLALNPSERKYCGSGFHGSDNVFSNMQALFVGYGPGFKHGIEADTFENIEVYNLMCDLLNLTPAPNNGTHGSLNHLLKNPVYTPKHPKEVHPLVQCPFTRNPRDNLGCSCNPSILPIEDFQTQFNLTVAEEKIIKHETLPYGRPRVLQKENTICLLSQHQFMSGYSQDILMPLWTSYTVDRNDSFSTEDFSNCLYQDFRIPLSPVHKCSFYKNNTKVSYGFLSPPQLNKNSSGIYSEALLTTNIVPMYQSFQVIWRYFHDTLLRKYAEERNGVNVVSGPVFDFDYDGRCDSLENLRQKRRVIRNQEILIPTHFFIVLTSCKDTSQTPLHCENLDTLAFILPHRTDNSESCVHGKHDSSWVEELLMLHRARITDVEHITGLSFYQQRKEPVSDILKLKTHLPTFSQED

P2Y11 receptor [2] = target: T2, P2Y11 receptor (Homo sapiens, UniProt Q96G91); experiment: [Ca2+]i elevation in 1321N1 astrocytoma cells expressing GFP-P2Y11 receptor; type: cell-based; settings: for potency relative to ATP at the P2Y11 receptor: more potent than ATP
T2 sequence (Q96G91 1-374): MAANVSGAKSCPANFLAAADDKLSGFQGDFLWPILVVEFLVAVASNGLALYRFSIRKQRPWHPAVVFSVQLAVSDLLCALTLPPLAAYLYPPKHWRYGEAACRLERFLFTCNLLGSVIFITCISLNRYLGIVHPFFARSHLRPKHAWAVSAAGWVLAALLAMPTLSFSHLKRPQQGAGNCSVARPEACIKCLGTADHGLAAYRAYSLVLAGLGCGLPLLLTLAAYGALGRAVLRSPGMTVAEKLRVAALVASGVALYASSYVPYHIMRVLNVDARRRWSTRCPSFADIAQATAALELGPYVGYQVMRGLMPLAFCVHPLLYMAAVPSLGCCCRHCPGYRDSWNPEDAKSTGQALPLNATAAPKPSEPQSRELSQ

human NTPDase1 = target: T3, human NTPDase1 (Homo sapiens, UniProt P49961); settings: analogue 100 μM as substrate; activity with 100 μM ATP set as 100%
T3 sequence (P49961 1-510): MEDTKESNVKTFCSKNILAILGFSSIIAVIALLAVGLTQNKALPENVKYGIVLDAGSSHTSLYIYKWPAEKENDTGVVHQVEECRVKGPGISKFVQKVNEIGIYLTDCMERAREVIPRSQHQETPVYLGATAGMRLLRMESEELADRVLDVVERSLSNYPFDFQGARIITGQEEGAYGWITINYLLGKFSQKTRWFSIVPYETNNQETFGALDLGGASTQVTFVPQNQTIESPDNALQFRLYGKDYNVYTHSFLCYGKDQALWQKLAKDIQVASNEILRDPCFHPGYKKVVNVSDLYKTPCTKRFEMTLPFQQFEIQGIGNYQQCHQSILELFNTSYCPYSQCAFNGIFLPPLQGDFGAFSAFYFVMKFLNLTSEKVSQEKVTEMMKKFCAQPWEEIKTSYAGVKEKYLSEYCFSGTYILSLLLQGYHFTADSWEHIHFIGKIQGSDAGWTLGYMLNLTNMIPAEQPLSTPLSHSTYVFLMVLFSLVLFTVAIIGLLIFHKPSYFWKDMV

human NTPDase2 = target: T4, human NTPDase2 (Homo sapiens, UniProt Q9Y5L3); settings: analogue 100 μM as substrate; activity with 100 μM ATP set as 100%
T4 sequence (Q9Y5L3 1-495): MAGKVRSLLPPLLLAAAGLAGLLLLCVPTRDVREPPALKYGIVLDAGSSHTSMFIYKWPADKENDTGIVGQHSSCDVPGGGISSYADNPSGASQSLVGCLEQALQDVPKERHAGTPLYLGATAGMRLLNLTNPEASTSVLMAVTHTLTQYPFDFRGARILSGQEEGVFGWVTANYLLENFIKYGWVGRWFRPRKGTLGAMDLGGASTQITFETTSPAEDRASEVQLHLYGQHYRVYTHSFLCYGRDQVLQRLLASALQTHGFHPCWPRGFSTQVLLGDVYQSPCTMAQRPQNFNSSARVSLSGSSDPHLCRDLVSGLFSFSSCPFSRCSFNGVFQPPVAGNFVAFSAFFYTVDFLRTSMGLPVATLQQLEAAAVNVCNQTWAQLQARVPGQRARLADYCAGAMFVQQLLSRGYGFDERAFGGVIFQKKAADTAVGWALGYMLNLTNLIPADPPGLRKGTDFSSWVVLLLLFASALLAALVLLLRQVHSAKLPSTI

human NTPDase3 = target: T5, human NTPDase3 (Homo sapiens, UniProt O75355); settings: analogue 100 μM as substrate; activity with 100 μM ATP set as 100%
T5 sequence (O75355 1-529): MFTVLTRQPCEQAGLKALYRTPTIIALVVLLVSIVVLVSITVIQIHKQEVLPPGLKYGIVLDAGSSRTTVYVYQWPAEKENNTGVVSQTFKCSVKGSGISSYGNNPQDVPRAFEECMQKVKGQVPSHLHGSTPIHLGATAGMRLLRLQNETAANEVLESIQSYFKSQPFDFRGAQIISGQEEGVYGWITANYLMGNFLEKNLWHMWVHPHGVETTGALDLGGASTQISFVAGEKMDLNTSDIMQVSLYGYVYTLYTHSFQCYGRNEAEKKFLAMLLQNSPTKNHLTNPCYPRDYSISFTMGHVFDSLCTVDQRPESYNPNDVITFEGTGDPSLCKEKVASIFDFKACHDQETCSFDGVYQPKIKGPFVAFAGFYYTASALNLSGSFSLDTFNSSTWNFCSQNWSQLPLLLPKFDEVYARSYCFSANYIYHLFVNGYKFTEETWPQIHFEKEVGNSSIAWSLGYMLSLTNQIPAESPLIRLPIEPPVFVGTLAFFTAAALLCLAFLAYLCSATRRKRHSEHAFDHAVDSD

human NTPDase8 = target: T6, human NTPDase8 (Homo sapiens, UniProt Q5MY95); settings: analogue 100 μM as substrate; activity with 100 μM ATP set as 100%
T6 sequence (Q5MY95 1-495): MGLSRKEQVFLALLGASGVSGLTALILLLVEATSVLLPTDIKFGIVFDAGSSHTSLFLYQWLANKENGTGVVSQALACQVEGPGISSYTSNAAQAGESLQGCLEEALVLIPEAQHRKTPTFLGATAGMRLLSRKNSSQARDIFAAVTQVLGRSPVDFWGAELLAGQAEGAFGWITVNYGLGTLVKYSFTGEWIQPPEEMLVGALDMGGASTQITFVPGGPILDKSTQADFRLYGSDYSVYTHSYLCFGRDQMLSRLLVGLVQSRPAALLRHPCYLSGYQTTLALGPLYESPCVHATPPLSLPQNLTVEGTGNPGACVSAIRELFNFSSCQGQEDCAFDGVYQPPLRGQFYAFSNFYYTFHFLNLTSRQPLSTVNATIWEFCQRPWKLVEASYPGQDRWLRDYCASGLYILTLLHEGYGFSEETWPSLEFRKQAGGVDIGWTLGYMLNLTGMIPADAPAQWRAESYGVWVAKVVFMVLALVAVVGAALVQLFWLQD

NPP1 = settings: cited from earlier work; for Ki: read-out: Ki, NPP1

SMILES	inhibition of ATP hydrolysis by NTPDase1,2,3,8 (human NTPDase1,2,3,8)	relative activity (%) ± SD of ATP hydrolysis, NTPDase1 (human NTPDase1)	relative activity (%) ± SD of ATP hydrolysis, NTPDase2 (human NTPDase2)	relative activity (%) ± SD of ATP hydrolysis, NTPDase3 (human NTPDase3)	relative activity (%) ± SD of ATP hydrolysis, NTPDase8 (human NTPDase8)	other results
Nc1ncnc2c1ncn2[C@@H]1O[C@H](CO[P@](=O)(O)O[P@](=O)(O)O[P@@](=O)(O)S)[C@@H](O)[C@H]1O [ATP-γ-S]						pEC50, P2Y11 receptor (P2Y11 receptor [1]): 5.52
Nc1ncnc2c1ncn2[C@@H]1O[C@H](CO[P@@](O)(=S)OP(=O)(O)C(Cl)(Cl)P(=O)(O)O)[C@@H](O)[C@H]1O [2b]	did not interfere	5.4 ± 0.2%	5.5 ± 0.2%	5.4 ± 0.2%	5.3 ± 0.2%	type of inhibition (human NPP1): mixed-type inhibition, predominantly competitive; EC50 (P2Y11 receptor [2]): 3 ± 1.46 µM; potency relative to ATP at the P2Y11 receptor (P2Y11 receptor [2]): 2 fold and ~ 2 fold
BP(=O)(OC[C@H]1O[C@@H](n2cnc3c(N)ncnc32)[C@H](O)[C@@H]1O)OP(=O)(O)CP(=O)(O)O (single isomer, unassigned; isomer a) [adenosine 5′-α-borano-β,γ-methylenetriphosphate (isomer A), adenosine 5′-α-borano-β,γ-methylenetriphosphate]						Ki (NPP1; ref 22 (b65 prints ref 44)): 0.5 µM
Nc1ncnc2c1ncn2[C@@H]1O[C@H](CO[P@](O)(=S)OP(=O)(O)CP(=O)(O)O)[C@@H](O)[C@H]1O [1a]	did not interfere	4.4 ± 0.2%	4.7 ± 1.7%	4.2 ± 0.2%	4.4 ± 0.2%	EC50 ± SEM (μM), [Ca^2+]i elevation, P2Y11 (P2Y11 receptor [2]; 1321N1 cells, nr = no response up to 10 μM): not agonists; also recorded: inactive; also recorded: not active, nr ^c
CCCSc1nc(N)c2ncn([C@@H]3O[C@H](COP(O)(=S)OP(=O)(O)C(Cl)(Cl)P(=O)(O)O)[C@@H](O)[C@H]3O)c2n1 (single isomer, unassigned; isomer a) [2-(propylthio)adenosine 5′-α-thio-β,γ-(dichloromethylene)-triphosphate, isomer A, 2-(propylthio)adenosine 5′-α-thio-β,γ-(dichloromethylene)-triphosphate]						potency relative to ATP at the P2Y11 receptor (P2Y11 receptor [1]): ~ 3 fold
Nc1ncnc2c1ncn2[C@H]1C[C@H](O)[C@@H](COP(=O)(O)CP(=O)(O)OP(=O)(O)OP(=O)(O)CP(=O)(O)OC[C@H]2O[C@@H](n3cnc4c(N)ncnc43)C[C@@H]2O)O1 [bis(2′-deoxyadenosine) α,β:δ,ε-dimethylenepentaphosphonate]						IC50 (NPP1; read-out: IC50, NPP1): 13 µM; Ki (NPP1): 9 µM
Nc1ncnc2c1nc(S)n2[C@@H]1O[C@H](COP(=O)(O)OP(=O)(O)OP(=O)(O)O)[C@@H](O)[C@H]1O [compound 4]		43 ± 2%	73 ± 2%	51 ± 3%	73 ± 1%	
Nc1ncnc2c1ncn2[C@@H]1O[C@H](CO[P@@](O)(=S)OP(=O)(O)CP(=O)(O)O)[C@@H](O)[C@H]1O [1b]	did not interfere	5.4 ± 0.2%	5.5 ± 0.3%	4.8 ± 0.2%	5.3 ± 0.2%	type of inhibition (human NPP1): mixed-type inhibition, predominantly competitive; potency relative to ATP at the P2Y11 receptor (P2Y11 receptor [2]): 7 fold and ~ 7 fold
CCCSc1nc(N)c2ncn([C@@H]3O[C@H](COP(O)(=S)OP(=O)(O)C(Cl)(Cl)P(=O)(O)O)[C@@H](O)[C@H]3O)c2n1 (single isomer, unassigned; isomer b) [2-(propylthio)adenosine 5′-α-thio-β,γ-(dichloromethylene)-triphosphate, isomer B, 2-(propylthio)adenosine 5′-α-thio-β,γ-(dichloromethylene)-triphosphate]						potency relative to ATP at the P2Y11 receptor (P2Y11 receptor [1]): ~ 4 fold
